Measurements published in patent US20080020076A1, “Methods and Therapies for Potentiating a Therapeutic Action of an Alpha-2 Adrenergic Receptor Agonist and Inhibiting and/or Reversing Tolerance to Alpha-2 Adrenergic Receptor Agonists” (priority 2006, published 2008).

Tests used:
[1] = test system: alpha-2 adrenergic receptor; assay: acute tolerance to spinal L-norepinephrine analgesia, paw pressure test; assay type: in vivo, rat
Procedure: (§1) The effect of normal saline (20 μl) was also evaluated by injection at 90 minute intervals. Pain responses were evaluated in the tail flick and paw pressure test at 30 minute intervals.
(§2) Experiments were conducted using adult male Sprague-Dawley rats (Charles River, St. Constant, QC, Canada) weighing between 200-250 grams. Animals were housed individually in standard laboratory cages, maintained on a 12-hour light/dark cycle, and provided with food and water ad libitum. The surgical placement of chronic indwelling intrathecal catheters (polyethylene PE 10 tubing, 7.5 cm) into the spinal subarachnoid space was made under 4% halothane anesthesia, using the method of Yaksh and Rudy Physiol. Behav. 1976 7:1032-1036). Specifically, the anesthetized animal was placed prone in a stereotaxic frame, a small incision made at the back of the neck, and the atlanto-occipital membrane overlying the cisterna magna was exposed and punctured with a blunt needle. The catheter was inserted through the cisternal opening and slowly advanced caudally to position its tip at the lumbar enlargement. The rostral end of the catheter was exteriorized at the top of the head and the wound closed with sutures. Animals were allowed 3-4 days recovery from surgery and only those free from neurological deficits, such as the hindlimb or forelimb paralysis or gross motor dysfunction, were included in the study. All drugs were injected intrathecally as solutions dissolved in physiological saline (0.9%) through the exteriorized portion of the catheter at a volume of 10 μl, followed by a 10 μl volume of 0.9% saline to flush the catheter.
(§3) The paw pressure test (Loomis et al., Pharm. Biochem. 1987 26:131-139) was used to measure the response to a mechanical nociceptive stimulus. Pressure was applied to the dorsal surface of the hind paw using an inverted air-filled syringe connected to a gauge and the value at which the animal withdrew its paw was recorded. A maximum cutoff pressure of 300 mmHg was used to avoid tissue damage.
(§4) For the in vivo studies, tail flick and paw pressure values were converted to a maximum percentage effect (M.P.E.): M.P.E.=100×[post-drug response−baseline response]/[maximum response−baseline response]. Data represented in the figures are expressed as mean (±S.E.M.). The ED50 values were determined using a non-linear regression analysis (Prism 2, GraphPad Software Inc., San Diego, Calif., USA). Statistical significance (p<0.05, 0.01. or 0.001) was determined using a one-way analysis of variance followed by a Student Newman-Keuls post hoc test for multiple comparisons between groups.

[2] = test system: alpha-2 adrenergic receptor; assay: tail flick test (thermal antinociception), intrathecal drugs; assay type: in vivo, rat
[3] = test system: alpha-2 adrenergic receptor; assay: paw pressure test (mechanical antinociception), intrathecal drugs; assay type: in vivo, rat
Procedure: as §2, §3
A single injection of clonidine was administered intrathecally and the response measured in the tail flick and paw pressure test. […] Following drug administration, nociceptive testing was performed every 10 minutes for the first 60 minutes and every 30 minutes for the following 120-150 minute period. Results for atipemazole are depicted in FIG. 1A (tail flick) and FIG. 1B (paw pressure).
as §4

[4] = test system: alpha-2 adrenergic receptor; assay: acute tolerance to spinal L-norepinephrine analgesia, tail flick test; assay type: in vivo, rat
Procedure: as §1, §2
The tail flick test (D'amour & Smith, J. Pharmacol. Exp. Ther. 1941 72:74-79) was used to measure the response to a thermal nociceptive stimulus. Radiant heat was applied to the distal third of the animal's tail and the response latency for tail withdrawal from the source was recorded using an analgesia meter (Owen et al., J. Pharmacol. Methods 1981 6:33-37)). The stimulus intensity was adjusted to yield baseline response latencies between 2-3 seconds. To minimize tail damage, a cutoff of 10 seconds was used as an indicator of maximum antinociception.
as §4

[5] = test system: alpha-2 adrenergic receptor; assay: tail flick test (thermal antinociception), intrathecal drugs; assay type: in vivo, rat; remark: listed apart in the source
Procedure: as §2, with “Animals were allowed 3-4 days recovery from surgery and only those free from neurological deficits, such as the hindlimb or forelimb paralysis or gross motor dysfunction, were included in the study. All drugs were injected intrathecally as solutions dissolved in physiological saline (0.9%) through the exteriorized portion of the catheter at a volume of 10 μl, followed by a 10 μl volume of 0.9% saline to flush the catheter.” left out
The tail flick test (D'amour & Smith, J. Pharmacol. Exp. Ther. 1941 72:74-79) was used to measure the response to a thermal nociceptive stimulus. Radiant heat was applied to the distal third of the animal's tail and the response latency for tail withdrawal from the source was recorded using an analgesia meter (Owen et al., J. Pharmacol. Methods 1981 6:33-37)). […]
A single injection of clonidine was administered intrathecally and the response measured in the tail flick and paw pressure test. […]
as §4

alpha-2 adrenoceptors = details: versus yohimbine; cited from earlier work
[6] = 24 hours after three successive injections of norepinephrine alone
[7] = norepinephrine alone, 30 μg x3 at 90 minute intervals
[8] = single spinal dose of norepinephrine (30 μg), alone
[9] = yohimbine 0.0002, 0.005 and 0.02 ng with clonidine 50 nmoles (13.3 μg) intrathecal
[10] = atipemazole 1, 5, 10 μg co-administered with clonidine 200 nmoles intrathecal
[11] = 24 hours after treatment, atipemazole 0.008 or 0.8 ng combined with norepinephrine
[12] = atipemazole 0.8 ng with L-norepinephrine 30 μg, three intrathecal injections at 90 minute intervals
[13] = atipemazole 0.008 or 0.8 ng combined with norepinephrine, x3, 24 hours after
[14] = combination of norepinephrine 30 μg and atipemazole 0.8 ng, x3 at 90 minute intervals
[15] = atipemazole 0.08 ng with L-norepinephrine 30 μg intrathecal
[16] = atipemazole 0.0008, 0.008 and 0.08 ng with clonidine 50 nmoles intrathecal
[17] = clonidine 50 nmoles (13.3 μg) intrathecal, alone
[18] = clonidine 50 nmoles (13.3 μg) intrathecal, alone, listed as Clonidine
[19] = clonidine 200 nmoles intrathecal, alone

SMILES: NC[C@H](O)c1ccc(O)c(O)c1 [norepinephrine, L-norepinephrine]
- L-norepinephrine ED50 versus saline control group [1, 6]: increased significantly
- analgesic response at 240 minutes, after the third dose [1, 7]: significantly declined towards pre-drug baseline value
- time at which analgesia terminated [2, 8]: 180 min
- time of peak analgesia [2, 8]: 30 min
- time at which analgesia terminated [3, 8]: 180 min
- time of peak analgesia [3, 8]: 30 min
- L-norepinephrine ED50 versus saline control group [4, 6]: increased significantly
- analgesic response at 240 minutes, after the third dose [4, 7]: significantly declined towards pre-drug baseline value

SMILES: COC(=O)[C@@H]1[C@H]2C[C@H]3c4[nH]c5ccccc5c4CCN3C[C@@H]2CC[C@@H]1O [yohimbine]
- effect on clonidine analgesic response [2, 9]: significantly augmented
- effect on clonidine analgesic response [3, 9]: significantly augmented

SMILES: CCC1(c2cnc[nH]2)Cc2ccccc2C1 [atipemazole]
- effect on peak clonidine analgesia ([5]; atipemazole 10 μg (highest dose) with clonidine 200 nmoles intrathecal): almost abolishing the response
- effect on peak clonidine analgesia [5, 10]: dose-related decrease
- dose antagonizing the analgesic action of clonidine ([5]; intrathecal, co-administered with clonidine 200 nmoles): greater than 1 microgram
- rightward shift of the L-norepinephrine cumulative dose-response curve [1, 11]: prevented
- effect on decline of norepinephrine analgesia on repeated injection [1, 12]: inhibited the decline of norepinephrine analgesia
- effect on increase of L-norepinephrine ED50 [1, 13]: completely prevented the increase in ED50 values
- analgesic response at 240 minutes, after the third dose [1, 14]: sustained the maximal analgesic level
- effect on norepinephrine analgesia [2, 15]: extended norepinephrine analgesia
- effect on clonidine analgesic response [2, 16]: significantly augmented
- effect on norepinephrine analgesia [3, 15]: extended norepinephrine analgesia
- effect on clonidine analgesic response [3, 16]: significantly augmented
- effect on clonidine response [3, 10]: decreased clonidine response in the paw pressure test but only at the highest dose
- rightward shift of the L-norepinephrine cumulative dose-response curve [4, 11]: prevented
- effect on decline of norepinephrine analgesia on repeated injection [4, 12]: inhibited the decline of norepinephrine analgesia
- effect on increase of L-norepinephrine ED50 [4, 13]: completely prevented the increase in ED50 values
- analgesic response at 240 minutes, after the third dose [4, 14]: sustained the maximal analgesic level
- potency as a displacer of clonidine relative to yohimbine (alpha-2 adrenoceptors): about 100 times

SMILES: Clc1cccc(Cl)c1N=C1NCCN1 [clonidine]
- analgesic response [2, 17]: submaximal analgesic response
- analgesic response [2, 18]: submaximal analgesia
- analgesic response [2, 19]: maximal analgesic response
- analgesic response [3, 17]: submaximal analgesic response
- analgesic response [3, 18]: submaximal analgesia
- analgesic response [3, 19]: a lesser effect
